Source: article PMC7292872 (Saudi Pharmaceutical Journal : SPJ, 2020)
pKd: −log10 of the molar value.

Biological target: Human serum albumin (HSA) (Homo sapiens, UniProt P02768)
Assay: UV-Vis absorption titration at […] nm
Format: binding

Chain of Human serum albumin (HSA) (P02768 25-609): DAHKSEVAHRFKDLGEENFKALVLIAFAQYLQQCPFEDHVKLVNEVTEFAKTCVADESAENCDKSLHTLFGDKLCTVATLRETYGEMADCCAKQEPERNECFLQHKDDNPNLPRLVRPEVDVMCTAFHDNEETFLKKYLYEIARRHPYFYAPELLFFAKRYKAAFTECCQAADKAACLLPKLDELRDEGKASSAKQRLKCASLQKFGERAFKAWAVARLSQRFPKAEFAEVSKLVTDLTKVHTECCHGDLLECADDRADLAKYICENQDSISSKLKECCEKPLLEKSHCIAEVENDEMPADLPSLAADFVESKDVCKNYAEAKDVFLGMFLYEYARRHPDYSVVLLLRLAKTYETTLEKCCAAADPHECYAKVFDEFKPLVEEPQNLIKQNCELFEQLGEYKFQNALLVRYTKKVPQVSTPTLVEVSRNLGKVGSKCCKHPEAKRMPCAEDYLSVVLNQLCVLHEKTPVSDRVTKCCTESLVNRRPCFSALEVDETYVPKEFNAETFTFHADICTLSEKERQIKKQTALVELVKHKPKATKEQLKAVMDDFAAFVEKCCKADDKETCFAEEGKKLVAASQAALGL

Compound `CCCc1nc2c(C)cc(-c3nc4ccccc4n3C)cc2n1Cc1ccc(-c2ccccc2C(=O)O)cc1` [TLM] has a pKd of 3.00.
